Experimental data taken from US9149038B2, “4-amino-6-(heterocyclic)picolinates and 6-amino-2-(heterocyclic)pyrimidine-4-carboxylates and their use as herbicides” (Dow AgroSciences LLC, priority 2013, dated 2015).
Read-outs that look alike come from different tables or passages of the source.

What was measured:
[1] = system: Key Broadleaf Weed and Crop Species; assay: Post-Emergent Test II: postemergent herbicidal activity, visual rating after 14 d (Table 7); assay type: in vivo; details: post-emergence, 336 h; for pest or weed control at 35 g/ha: 35 g ai/ha; for pest or weed control at 70 g/ha: 70 g ai/ha; for pest or weed control at 140 g/ha: 140 g ai/ha
In short: (§1)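 Track-sprayed young seedlings (first/second true leaf) at 187 L/ha across a 2-fold rate series from the high rate down to 1/16×. Kept in greenhouse at 23-29° C day, subirrigated. Injury rated by eye after 14 d, 0 = no injury, 100 = complete kill.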

[2] = system: Key Grass and Sedge Weeds as well as Grass Crops; assay: Post-Emergent Test II: postemergent herbicidal activity, visual rating after 14 d (Table 8); assay type: in vivo; details: post-emergence, 336 h; for pest or weed control at 35 g/ha: 35 g ai/ha; for pest or weed control at 70 g/ha: 70 g ai/ha; for pest or weed control at 140 g/ha: 140 g ai/ha
In short: as §1

[3] = lambsquarters (Chenopodium album), read-out: Visual Growth Reduction (%) 14 Days After Application CHEAL
[4] = oilseed rape, canola (Brassica napus), read-out: Visual Growth Reduction (%) 14 Days After Application BRSNN
[5] = redroot pigweed (Amaranthus retroflexus), read-out: Visual Growth Reduction (%) 14 Days After Application AMARE
[6] = sunflower (Helianthus annuus), read-out: Visual Growth Reduction (%) 14 Days After Application HELAN
[7] = velvetleaf (Abutilon theophrasti), read-out: Visual Growth Reduction (%) 14 Days After Application ABUTH
[8] = wild poinsettia (Euphorbia heterophylla), read-out: Visual Growth Reduction (%) 14 Days After Application EPHHL
[9] = barnyardgrass (Echinochloa crus-galli), read-out: Visual Growth Reduction (%) 14 Days After Application ECHCG
[10] = giant foxtail (Setaria faberi), read-out: Visual Growth Reduction (%) 14 Days After Application SETFA
[11] = maize, corn (Zea mays), read-out: Visual Growth Reduction (%) 14 Days After Application ZEAMX
[12] = rice (Oryza sativa), read-out: Visual Growth Reduction (%) 14 Days After Application ORYSA
[13] = wheat, spring (Triticum aestivum), read-out: Visual Growth Reduction (%) 14 Days After Application TRZAS
[14] = yellow nutsedge (Cyperus esculentus), read-out: Visual Growth Reduction (%) 14 Days After Application CYPES

`COC(=O)c1nc(-c2ccc3c(c2F)OC(F)(F)O3)c(Cl)c(N)c1Cl` [Compound 4] gave a pest or weed control at 35 g/ha [1, 3] of 0 to 29%, a pest or weed control at 70 g/ha [1, 3] of 0 to 29% and a pest or weed control at 140 g/ha [1, 3] of 0 to 29%. For the same compound, the pest or weed control at 35 g/ha [1, 4] was 0 to 29%, the pest or weed control at 70 g/ha [1, 4] was 0 to 29% and the pest or weed control at 140 g/ha [1, 4] was 0 to 29%. For the same compound, the pest or weed control at 35 g/ha [1, 5] was 0 to 29%, the pest or weed control at 70 g/ha [1, 5] was 0 to 29% and the pest or weed control at 140 g/ha [1, 5] was 0 to 29%. It also gave a pest or weed control at 35 g/ha [1, 6] of 0 to 29%, a pest or weed control at 70 g/ha [1, 6] of 45 to 59% and a pest or weed control at 140 g/ha [1, 6] of 60 to 74%. For the same compound, the pest or weed control at 35 g/ha [1, 7] was 0 to 29%, the pest or weed control at 70 g/ha [1, 7] was 0 to 29% and the pest or weed control at 140 g/ha [1, 7] was 0 to 29%. It also gave a pest or weed control at 35 g/ha [1, 8] of 0 to 29%, a pest or weed control at 70 g/ha [1, 8] of 0 to 29% and a pest or weed control at 140 g/ha [1, 8] of 0 to 29%. It also gave a pest or weed control at 35 g/ha [2, 9] of 0 to 29%, a pest or weed control at 70 g/ha [2, 9] of 0 to 29% and a pest or weed control at 140 g/ha [2, 9] of 0 to 29%. The pest or weed control at 35 g/ha [2, 10] was 0 to 29%, the pest or weed control at 70 g/ha [2, 10] was 0 to 29% and the pest or weed control at 140 g/ha [2, 10] was 0 to 29%. The pest or weed control at 35 g/ha [2, 11] was 0 to 29%, the pest or weed control at 70 g/ha [2, 11] was 0 to 29% and the pest or weed control at 140 g/ha [2, 11] was 0 to 29%. It also gave a pest or weed control at 35 g/ha [2, 12] of 0 to 29%, a pest or weed control at 70 g/ha [2, 12] of 0 to 29% and a pest or weed control at 140 g/ha [2, 12] of 0 to 29%. The pest or weed control at 35 g/ha [2, 13] was 0 to 29%, the pest or weed control at 70 g/ha [2, 13] was 0 to 29% and the pest or weed control at 140 g/ha [2, 13] was 0 to 29%. For the same compound, the pest or weed control at 35 g/ha [2, 14] was 0 to 29%, the pest or weed control at 70 g/ha [2, 14] was 0 to 29% and the pest or weed control at 140 g/ha [2, 14] was 0 to 29%.
